# Patent US7001905B2, “Substituted diarylamines as MEK inhibitors” (Warner-Lambert Company, priority 2000, dated 2006)
# pIC50: −log10 of the molar value.
# Molecular target: T1, MEK (Homo sapiens, UniProt Q02750)
# T1 construct: no tag is given for the 2D mutant
# Assay: in vitro MEK assay
# Format: biochemical
# Experimental: For evaluation of direct MEK activity, 10 μg GST-MEK, is incubated in the presence of absence of test compound with 5 μg of a glutathione S-transferase fusion protein containing p44MAP kinase with a lysine to alanine mutation at position 71 (GST-MAPK-KA). This mutation eliminates kinase activity of MAPK, so only kinase activity attributed to the added MEK remains. Incubations are 15 minutes at 30° C. in a final volume of 50 μL containing 50 mM Tris (pH 7.5), […], 2, μM EGTA, and 10 μM [γ-^32P]ATP. The reaction is stopped by addition of Laemmli SDS sample buffer. Phosphorylated GST-MAPK-KA is resolved by electrophoresis on a 10% polyacrylamide gel. Radioactivity incorporated into GST-MAPK-KA is determined by autoradiography, and subsequent scintillation counting of excised bands.
# Alternatively, an artificially activated MEK containing serine to glutamate mutations at positions 218 and 222 (GST-MEK-2E) is used. When these two sites are phosphorylated, MEK activity is increased. Phosphorylation of these sites can be mimicked by mutation of the serine residues to glutamate. For this assay, 5 μg GST-MEK-2E is incubated with 5 μg GST-MAPK-KA for 15 minutes at 30° C. in the same reaction buffer as described above. Reactions are terminated and analyzed as above.
# T1 sequence (Q02750 whole entry S218D/S222D, form open): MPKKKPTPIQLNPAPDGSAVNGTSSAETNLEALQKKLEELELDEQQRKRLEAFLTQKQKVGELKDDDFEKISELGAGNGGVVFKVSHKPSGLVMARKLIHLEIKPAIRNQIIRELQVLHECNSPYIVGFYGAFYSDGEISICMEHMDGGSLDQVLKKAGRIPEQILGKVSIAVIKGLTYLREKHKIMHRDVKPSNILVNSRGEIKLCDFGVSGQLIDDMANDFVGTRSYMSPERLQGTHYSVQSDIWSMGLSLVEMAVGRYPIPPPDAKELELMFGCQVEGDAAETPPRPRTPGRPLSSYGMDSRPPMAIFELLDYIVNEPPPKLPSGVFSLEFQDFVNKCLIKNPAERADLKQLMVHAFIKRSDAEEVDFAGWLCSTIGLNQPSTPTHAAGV
in vitro MEK assay: % inhibition @ 1 μM [%],pIC50,Compound
48,–,"Cc1cc(I)ccc1N1COC(=O)c2cc(C(=O)N3CCCC(O)C3)c(F)c(F)c21 (stereo not shown) [Example 38, 7,8-Difluoro-6-(3-hydroxy-piperidine-1-carbonyl)-1-(4-iodo-2-methyl-phenyl)-1,2-dihydro-3,1-benzoxazin-4-one]"
76,–,"Cc1cc(I)ccc1N1COC(=O)c2cc(C(=O)N3CCSC3)c(F)c(F)c21 [Example 58, 7,8-Difluoro-1-(4-iodo-2-methyl-phenyl)-6-(thiazolidine-3-carbonyl)-1,2-dihydro-3,1-benzoxzin-4-one]"
34,–,"Cc1cc(I)ccc1N1COC(=O)c2cc(C(=O)N3CC[C@@H](O)C3)c(F)c(F)c21 [Example 8, 7,8-Difluoro-6-((R)-3-hydroxy-pyrrolidine-1-carbonyl)-1-(4-iodo-2-methyl-phenyl)-1,2-dihydro-3,1-benzoxazin-4-one]"
21,–,"Cc1cc(I)ccc1N1COC(=O)c2cc(C(=O)Nc3nc4ccccc4s3)c(F)c(F)c21 [Example 29, 7,8-Difluoro-1-(4-iodo-2-methyl-phenyl)-4-oxo-1,4-dihydro-2H-3,1-benzoxazine-6-carboxylic acid benzothiazol-2-ylamide]"
76,–,"CSc1nc(NC(=O)c2cc3c(c(F)c2F)N(c2ccc(I)cc2C)COC3=O)n[nH]1 [Example 35, 7,8-Difluoro-1-(4-iodo-2-methyl-phenyl)-4-oxo-1,4-dihydro-2H-3,1-benzoxazine-6-carboxylic acid (5-methylsulfanyl-1H-1,2,4-triazol-3-yl)-amide]"
–,5.24,"Cc1cc(I)ccc1N1COC(=O)c2cc(C(=O)N(C)C)c(F)c(F)c21 [Example 5, 7,8-Difluoro-1-(4-iodo-2-methyl-phenyl)-4-oxo-1,4-dihydro-2H-benzo[d][1,3]oxazine-6-carboxylic acid dimethylamide]"
32,–,"Cc1cc(I)ccc1N1COC(=O)c2cc(C(=O)Nc3nccs3)c(F)c(F)c21 [Example 31, 7,8-Difluoro-1-(4-iodo-2-methyl-phenul)-4-oxo-1,4-dihydro-2H-3,1-benzoxazine-6-carboxylic acid thiazol-2-ylamide]"
92,–,"COc1ccc(N(C)C(=O)c2cc(C(=O)O)c(Nc3ccc(I)cc3C)c(F)c2F)cc1 [Example 94, 4,5-Difluoro-6-(4-iodo-2-methyl-phenylamino)-N-(4-methoxy-phenyl)-N-methyl-isophthalamic acid]"
23,–,"Cc1cc(I)ccc1N1COC(=O)c2cc(C(=O)NCC3(O)CCCCC3)c(F)c(F)c21 [Example 13, 7,8-Difluoro-1-(4-iodo-2-methyl-phenyl)-4-oxo-1,4-dihydro-2H-3,1-benzoxazine-6-carboxylic acid (1-hydroxy-cyclohexylmethyl)-amide]"
63,5.86,"Cc1cc(I)ccc1Nc1c(C(=O)O)cc(C(=O)NCCOCCO)c(F)c1F [Example 65, 4,5-Difluoro-N-[2-(2-hydroxy-ethoxy)-ethyl]-6-(4-iodo-2-methyl-phenylamino)-isophthalamic acid]"
92,6.33,Cc1cc(I)ccc1Nc1c(C(=O)O)cc(C(=O)N2CCCC(O)C2)c(F)c1F (stereo not shown) [Example 75]
20,–,"CCc1nnc(NC(=O)c2cc3c(c(F)c2F)N(c2ccc(I)cc2C)COC3=O)s1 [Example 26, 7,8-Difluoro-1-(4-iodo-2-methyl-phenyl)-4-oxo-1,4-dihydro-2H-3,1-benzoxazine-6-carboxylic acid (5-ethyl-1,3,4-thiadiazol-2-yl)-amide]"
65,–,"Cc1cc(I)ccc1Nc1c(C(=O)O)cc(C(=O)Nc2ccc3c(c2)OCCO3)c(F)c1F [Example 72, N-(2,3-Dihydro-benzo[1,4]dioxin-6-yl)4,5-difluoro-6-(4-iodo-2-methyl-phenylamino)-isophthalamic acid]"
56,–,"CCN1CCN(C(=O)c2cc3c(c(F)c2F)N(c2ccc(I)cc2C)COC3=O)CC1 [Example 54, 6-(4-Ethyl-piperazine-1-carbonyl)-7,8-difluoro-1-(4-iodo-2-methyl-phenyl)-1,2-dihydro-3,1-benzoxazin-4-one]"
90,6.82,"Cc1cc(I)ccc1Nc1c(C(=O)O)cc(C(=O)N2CCC(CCO)CC2)c(F)c1F [Example 83, 3,4-Difluoro-5-{1-[4-(2-hydroxy-ethyl)-piperidin-1-yl]-methanoyl}-2-(4-iodo-2-methyl-phenylamino)-benzoic acid]"
58,–,"Cc1cc(I)ccc1Nc1c(C(=O)O)cc(C(=O)NCCCN2CCOCC2)c(F)c1F [Example 91, 4,5-Difluoro-6-(4-iodo-2-methyl-phenylamino)-N-(3-morpholin4-yl-propyl)-isophthalamic acid]"
54,5.82,"Cc1cc(I)ccc1Nc1c(C(=O)O)cc(C(=O)NCCN2CCOCC2)c(F)c1F [Example 79, 4,5-Difluoro-6-(4-iodo-2-methyl-phenylamino)-N-(2-morpholin-4-yl-ethyl)-isophthalamic acid]"
42,–,"Cc1cc(I)ccc1N1COC(=O)c2cc(C(=O)N3CCC(O)C3)c(F)c(F)c21 (stereo not shown) [Example 40, 7,8-Difluoro-6-(3-hydroxy-pyrrolidine-1-carbonyl)-1-(4-iodo-2-methyl-phenyl)-1,2-dihydro-3,1-benzoxazin-4-one]"
27,–,"Cc1cc(I)ccc1N1COC(=O)c2cc(C(=O)Nc3nnc(S)s3)c(F)c(F)c21 [Example 27, 7,8-Difluoro-1-(4-iodo-2-methyl-phenyl)-4-oxo-1,4-dihydro-2H-3,1-benzoxazine-6-carboxylic acid (5-mercapto-1,3,4-thiadiazol-2-yl)-amide]"
70,–,"CCN1CCN(C(=O)c2cc(C(=O)O)c(Nc3ccc(I)cc3C)c(F)c2F)CC1 [Example 93, 5-[1-(4-Ethyl-piperazin-1-yl)-methanoyl]-3,4-difluoro-2-(4-iodo-2-methyl-phenylamino)-benzoic acid]"
50,–,"Cc1cc(I)ccc1Nc1c(C(=O)O)cc(C(=O)Nc2cccnc2)c(F)c1F [Example 74, 4,5-Difluoro-6-(4-iodo-2-methyl-phenylamino)-N-pyridin-3-yl-isophthalamic acid]"
43,–,"COc1ccc(NC(=O)c2cc3c(c(F)c2F)N(c2ccc(I)cc2C)COC3=O)cn1 [Example 46, 7,8-Difluoro-1-(4-iodo-2-methyl-phenyl)-4-oxo-1,4-dihydro-2H-3,1-benzoxazine-6-carboxylic acid (6-methoxy-pyridin-3-yl)amide]"
14,–,"Cc1cc(I)ccc1Nc1c(C(=O)O)cc(C(=O)NCCC2CCCN2C)c(F)c1F (stereo not shown) [Example 66, 4,5-Difluoro-6-(4-iodo-2-methyl-phenylamino)-N-[2-(1-methyl-pyrrolidin-2-yl)-ethyl]-isophthalamic acid]"
31,–,"Cc1cc(I)ccc1N1COC(=O)c2cc(C(=O)Nc3nncs3)c(F)c(F)c21 [Example 21, 7,8-Difluoro-1-(4-iodo-2-methyl-phenyl)-oxo-1,4-dihydro-2H-3,1-benzoxazine-6-carboxylic acid 1,3,4-thiadiazol-2-ylamide]"
60,5.85,"Cc1cc(I)ccc1Nc1c(C(=O)O)cc(C(=O)NCCc2c[nH]cn2)c(F)c1F [Example 88, 4,5-Difluoro-N-[2-(1H-imidazol-4-yl)-ethyl]-6-(4-iodo-2-methyl-phenylamino)-isophthalamic acid]"
28,–,"Cc1cc(I)ccc1N1COC(=O)c2cc(C(=O)NCCC3CCCN3C)c(F)c(F)c21 (stereo not shown) [Example 19, 7,8-Difluoro-1-(4-iodo-2-methyl-phenyl)-4-oxo-1,4-dihydro-2H-3,1-benzoxazine-6-carboxylic acid [2-(1-methyl-pyrrolidin-2-yl)ethyl]-amide]"
9,–,"CCOc1ccc2nc(NC(=O)c3cc4c(c(F)c3F)N(c3ccc(I)cc3C)COC4=O)sc2c1 [Example 28, 7,8-Difluoro-1-(4-iodo-2-methyl-phenyl)-4-oxo-1,4-dihydro-2H-3,1-benzoxazine-6-carboxylic acid (6-ethoxy-benzothiazol-2-yl)-amide]"
13,–,"Cc1cc(I)ccc1N1COC(=O)c2cc(C(=O)N3CCN(C=O)CC3)c(F)c(F)c21 [Example 15, 4-[7,8-Difluoro-1-(4-iodo-2-methyl-phenyl)-4-oxo-1,4-dihydro-2H-3,1-benzoxazine-6-carbonyl]-piperazine-1-carbaldehyde]"
86,5.84,"Cc1cc(I)ccc1Nc1c(C(=O)O)cc(C(=O)NCc2cccnc2)c(F)c1F [Example 71, 4,5-Difluoro-6-(4-iodo-2-methyl-phenylamino)-N-pyridin-3-ylmethyl-isophthalamic acid]"
66,5.66,"Cc1cc(I)ccc1Nc1c(C(=O)O)cc(C(=O)NC(C)CO)c(F)c1F (stereo not shown) [Example 87, 4,5-Difluoro-N-(2-hydroxy-1-methyl-ethyl)-6-(4-iodo-2-methyl-phenylamino)-isophthalamic acid]"
